Data on twelve compounds can be found in ChEMBL document CHEMBL1201862, “PubChem BioAssay data set” (2004).

Among the test systems are SK-MEL-2; HCT-116; U-251; IGROV-1; UACC-257; MOLT-4; SNB-75; NCI-H460; SF-295; HCC 2998; SW-620; RPMI-8226; A498; SK-OV-3; CAKI-1; HCT-15; SF-539; NCI-H522.
Holding throughout (assay): growth of human tumour cells (NCI), 48 h

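48-hour exposure; five concentrations; linearly interpolated endpoints. GI50 marks 50% less growth.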 Calls of active or inactive are those of the source. Rule as the data show it: active = GI50 up to about 1.1 µM and inactive = higher.

`CCOc1ccc(NC(=O)CC2SC(N)=NC2=O)cc1` (centres undefined): the GI50 in the experiment with SK-MEL-2, with HCT-116, in the experiment on U-251, in the experiment on IGROV-1, in the experiment on UACC-257 and in the experiment with MOLT-4 was > 100 µM (inactive) each time. Also, the GI50 in the experiment with SNB-75, in the experiment with NCI-H460, in the experiment with SF-295, with HCC 2998, in the experiment with SW-620 and with RPMI-8226 was > 100 µM (inactive) in each case.
With `O=C(Nc1c(Cl)cc([N+](=O)[O-])cc1Cl)C(=O)C(C1OC(=O)c2ccccc21)[N+](=O)[O-]` (centres undefined), the GI50 in the experiment with SK-MEL-2 is > 100 µM (inactive); in the experiment with HCT-116, > 100 µM (inactive); in the experiment on U-251 it was > 100 µM (inactive); with IGROV-1 it was > 100 µM (inactive); with A498 it was 31.6 µM (inactive); in the experiment on UACC-257, > 100 µM (inactive). For the same compound, the GI50 in the experiment on SK-OV-3, with MOLT-4, in the experiment with SNB-75, with NCI-H460, with SF-295 and with HCC 2998 was > 100 µM (inactive) throughout. For the same compound, the GI50 with CAKI-1 is > 100 µM (inactive); with HCT-15 it was more than 100 µM; with SF-539, > 100 µM (inactive); with SW-620 it was > 100 µM (inactive); with RPMI-8226, 89.9 µM (inactive).
Regarding `COc1ccc(OC(C(=O)O)C(C)C)c2c1CCCC2=O` (centres undefined), the GI50 in the experiment on NCI-H522, in the experiment on SK-MEL-2, with HCT-116, with U-251, in the experiment with IGROV-1 and in the experiment on A498 was > 100 µM (inactive) in each case. For the same compound, the GI50 in the experiment with UACC-257, in the experiment on SK-OV-3, with MOLT-4, in the experiment with NCI-H460, in the experiment with SF-295 and with HCC 2998 was > 100 µM (inactive) throughout. Besides, the GI50 with CAKI-1 is > 100 µM (inactive); in the experiment on HCT-15, more than 100 µM; with SF-539, > 100 µM (inactive); with SW-620, > 100 µM (inactive); with RPMI-8226 it was > 100 µM (inactive).
For the compound `COc1ccc(/C=N/n2cnc3c(c2=O)S/C(=C2/SC(=S)N(c4ccc(C)cc4)C2=O)N3c2ccccc2)cc1`, the GI50 with NCI-H522 was 52.4 µM (inactive); in the experiment on SK-MEL-2, 79.4 µM (inactive); with HCT-116, 56 µM (inactive); in the experiment with IGROV-1 it was 42.7 µM (inactive); with SK-OV-3 it was > 100 µM (inactive); with MOLT-4, > 10 µM (inactive). Moreover, the GI50 was > 100 µM (inactive) in the experiment with SNB-75; 68.7 µM (inactive) with NCI-H460; 11.6 µM (inactive) in the experiment on SF-295; > 100 µM (inactive) with HCC 2998; > 10 µM (inactive) in the experiment on CAKI-1; more than 100 µM in the experiment with HCT-15. Moreover, the GI50 in the experiment with SF-539 is 30.5 µM (inactive); in the experiment on SW-620 it was > 100 µM (inactive); with RPMI-8226 it was 40.8 µM (inactive).
Turning to `Cc1noc(/N=C2\C=C(Nc3onc(C)c3C)C(=O)c3ccccc32)c1C`, the GI50 in the experiment on SK-MEL-2 is 48.1 µM (inactive); in the experiment with HCT-116, 95.5 µM (inactive); in the experiment with U-251, 46.1 µM (inactive); in the experiment with IGROV-1, > 100 µM (inactive); in the experiment with A498, > 100 µM (inactive); with UACC-257, 36.7 µM (inactive). In addition, the GI50 in the experiment on SK-OV-3 was > 100 µM (inactive); with MOLT-4, > 100 µM (inactive); in the experiment with SNB-75, 69.3 µM (inactive); in the experiment on NCI-H460 it was > 100 µM (inactive); in the experiment with SF-295 it was > 100 µM (inactive); in the experiment with HCC 2998, > 100 µM (inactive). Further, the GI50 was > 100 µM (inactive) with CAKI-1; more than 100 µM in the experiment with HCT-15; > 100 µM (inactive) in the experiment with SF-539; > 100 µM (inactive) in the experiment with SW-620; 25.1 µM (inactive) in the experiment on RPMI-8226.
`CC1=NOC(=O)C1/N=N/c1ccc(Br)c(C)c1` (centres undefined): the GI50 was 16.3 µM (inactive) in the experiment with SK-MEL-2; 17.7 µM (inactive) in the experiment on HCT-116; 18.5 µM (inactive) in the experiment on U-251; 19.2 µM (inactive) in the experiment on IGROV-1; 21.4 µM (inactive) in the experiment on A498; 17.5 µM (inactive) with UACC-257. Further, the GI50 is 34.8 µM (inactive) in the experiment with SK-OV-3; 18.4 µM (inactive) with MOLT-4; 30.5 µM (inactive) in the experiment with SNB-75; 23.9 µM (inactive) in the experiment on NCI-H460; 23 µM (inactive) in the experiment with SF-295; 24.8 µM (inactive) in the experiment with HCC 2998. In addition, the GI50 in the experiment on CAKI-1 was 16.1 µM (inactive); in the experiment with HCT-15, 19.3 µM; in the experiment with SF-539, 20.2 µM (inactive); with SW-620, 17.6 µM (inactive); with RPMI-8226 it was 15.9 µM (inactive).
`COC(=O)c1nc(N)nc(C(=O)OC)c1C(=O)c1ccccc1`: the GI50 with NCI-H522, with SK-MEL-2, in the experiment with HCT-116, with U-251, in the experiment on IGROV-1 and with A498 was > 100 µM (inactive) in each case. The GI50 is > 100 µM (inactive) with UACC-257; > 100 µM (inactive) in the experiment with SK-OV-3; > 100 µM (inactive) in the experiment on MOLT-4; 54.1 µM (inactive) with SNB-75; > 100 µM (inactive) with NCI-H460; > 100 µM (inactive) in the experiment with SF-295. For the same compound, the GI50 in the experiment on HCC 2998 is > 100 µM (inactive); in the experiment with HCT-15 it was more than 100 µM; with SF-539, > 100 µM (inactive); in the experiment with SW-620, > 100 µM (inactive); in the experiment on RPMI-8226, > 100 µM (inactive).
With `CCC1C(=O)OCc2c1cc1n(c2=O)C(CC)c2c-1nc1ccccc1c2Cl` (centres undefined), the GI50 was 15 µM (inactive) in the experiment with NCI-H522; 21 µM (inactive) in the experiment on SK-MEL-2; 19.3 µM (inactive) in the experiment with U-251; 19.9 µM (inactive) with IGROV-1; 21.9 µM (inactive) with A498; 29.6 µM (inactive) in the experiment on UACC-257. Moreover, the GI50 with SK-OV-3 is 33.9 µM (inactive); with MOLT-4 it was 10.4 µM (inactive); in the experiment on NCI-H460, 15.1 µM (inactive); in the experiment with SF-295, 23.4 µM (inactive); in the experiment with CAKI-1, 23 µM (inactive); with HCT-15, 36.6 µM. Also, the GI50 with SF-539 was 17.3 µM (inactive); in the experiment on SW-620, 24 µM (inactive); in the experiment on RPMI-8226 it was 13.2 µM (inactive).
As for `CN/N=C(/Cc1occc(=O)c1O)C(=O)Nc1ccc(C)c(C)c1`, the GI50 in the experiment with NCI-H522, in the experiment with SK-MEL-2, in the experiment with HCT-116, in the experiment on U-251, in the experiment with IGROV-1 and in the experiment with A498 was > 100 µM (inactive) each time. Also, the GI50 with UACC-257, with SK-OV-3, in the experiment on MOLT-4, in the experiment with NCI-H460, in the experiment with SF-295 and in the experiment on HCC 2998 was > 100 µM (inactive) throughout. Also, the GI50 in the experiment with CAKI-1 was > 100 µM (inactive); in the experiment on HCT-15, more than 100 µM; in the experiment with SF-539, > 100 µM (inactive); in the experiment on SW-620, > 100 µM (inactive); with RPMI-8226 it was > 100 µM (inactive).
Regarding `CC1=C2O[B-](c3ccccc3)(c3ccccc3)[O+]=C2C=CN1`, the GI50 was 42.6 µM (inactive) in the experiment with HCT-116; 55.6 µM (inactive) in the experiment on U-251; 61.7 µM (inactive) in the experiment on IGROV-1; 27.7 µM (inactive) with UACC-257; > 100 µM (inactive) in the experiment with SK-OV-3; 20.2 µM (inactive) with MOLT-4. Besides, the GI50 in the experiment on SNB-75 is 22.8 µM (inactive); with NCI-H460, 49.9 µM (inactive); in the experiment with SF-295 it was 48.2 µM (inactive); with CAKI-1, 21.8 µM (inactive); in the experiment on HCT-15, 32.3 µM; in the experiment on SW-620, 44.9 µM (inactive). In addition, the GI50 with RPMI-8226 was 28.3 µM (inactive).
`CN(Cc1ccccc1)C(=NC#N)N(C)Cc1ccccc1`: the GI50 in the experiment with NCI-H522, in the experiment with SK-MEL-2, in the experiment with HCT-116, with U-251, in the experiment with IGROV-1 and in the experiment on UACC-257 was > 100 µM (inactive) in each case. For the same compound, the GI50 with SK-OV-3 was > 100 µM (inactive); in the experiment on NCI-H460, > 100 µM (inactive); in the experiment on SF-295 it was > 100 µM (inactive); in the experiment on HCC 2998, > 100 µM (inactive); in the experiment on CAKI-1 it was > 100 µM (inactive); in the experiment on HCT-15, more than 100 µM. Also, the GI50 in the experiment on SF-539 and with SW-620 was > 100 µM (inactive) each time.
In the case of `C[N+](C)(C)C.FC(F)(F)C1(C(F)(F)F)O[SiH-]2(OC(C(F)(F)F)(C(F)(F)F)c3ccccc32)c2ccccc21`, the GI50 with NCI-H522 is 22.1 µM (inactive); in the experiment with SK-MEL-2, 17.7 µM (inactive); in the experiment with U-251 it was 5.4 µM (inactive); in the experiment with UACC-257, 24.4 µM (inactive); in the experiment on MOLT-4, 11.7 µM (inactive); with NCI-H460 it was 8.97 µM (inactive). Also, the GI50 is 4.81 µM (inactive) in the experiment with SF-295; 19.2 µM (inactive) in the experiment on HCC 2998; 26.4 µM (inactive) in the experiment with CAKI-1; 10.4 µM in the experiment on HCT-15; 11.9 µM (inactive) in the experiment on SF-539; 18 µM (inactive) with SW-620. Besides, the GI50 with RPMI-8226 is 16.4 µM (inactive).
